Laboratory results published in patent US20230364118A1, “RIBITOL TREATMENT” (priority 2020, published 2023).
Read-outs that look alike come from different tables or passages of the source.

Assays:
[1] = 7-day repeat-dose oral toxicokinetics; format: in vivo, CD-1 mouse; details: for Cmax / Tmax / AUC(0-t): CD-1, mouse, plasma, po; for AUC(0-t): read-out: AUC0-24
Protocol: Toxicokinetics were evaluated as part of a 7-day oral repeat-dose dose range finding study in CD-1 mice. […] On Days 1 and 7, blood was collected for plasma toxicokinetics (TK) from the treatment groups at 0 (pre-first dose), 0.5, 2, 4, 6 (pre-second dose), 6.5, 8, 10, 12, and 24 hours post-first dose. In the vehicle control group, blood was collected for plasma TK on Day 1 and Day 7 at 0.5 and 6.5 hours post-first dose.

[2] = Plasma protein binding, animals pooled (range); format: in vitro ADME, CD-1 mouse; details: CD-1, Sprague-Dawley, Gottingen, mouse, rat, minipig, animal plasma, 0.49 and 1.31 mM
Protocol: Protein binding studies with ribitol were performed in vitro using plasma from CD-1 mouse, Sprague-Dawley rat, Gottingen minipig, and human at 75 μg/mL (0.49 mM) and 200 μg/mL (1.31 mM) using the rapid equilibrium dialysis method. The percent of ribitol bound to plasma was approximately similar between the two concentrations tested in all species.

[3] = Single intravenous dose PK; format: in vivo, CD-1 mouse; details: for CLs: CD-1 mice; for clearance: read-out: Systemic clearance (CLs)
Protocol: The PK of ribitol was studied in male and female CD-1 mice following three IV doses at 10, 30, and 100 mg/kg (n=3/dose/sex). Blood samples were collected serially up to 24 hours post dose.

[4] = 28-day repeat-dose oral toxicokinetics; format: in vivo, CD-1 mouse; details: for Cmax / AUC(0-t): po; for AUC(0-t): read-out: AUC0-24
Protocol: Toxicokinetics of ribitol was evaluated as part of the 28-day toxicology study in male and female CD-1 mice. […] Toxicokinetic animals were 12/sex in the control group and 48/sex/group in the treated groups. Blood samples were collected on Day 1 and Day 28 at pre-first dose, 0.5, 2, 4, 8 (prior to second dose), 8.5, 10, and 24 h.

[5] = female, 0.5 g/kg, 0.5 g/kg/dose BID, Day 1, F
[6] = female, 0.5 g/kg, 0.5 g/kg/dose BID, Day 7, F
[7] = female, 1 g/kg, 1.0 g/kg/dose BID, Day 1, F
[8] = female, 1 g/kg, 1.0 g/kg/dose BID, Day 7, F
[9] = female, 1.5 g/kg, 1.5 g/kg/dose BID, Day 1, F
[10] = female, 1.5 g/kg, 1.5 g/kg/dose BID, Day 7, F
[11] = male, 0.5 g/kg, 0.5 g/kg/dose BID, Day 1, M
[12] = male, 0.5 g/kg, 0.5 g/kg/dose BID, Day 7, M
[13] = male, 1 g/kg, 1.0 g/kg/dose BID, Day 1, M
[14] = male, 1 g/kg, 1.0 g/kg/dose BID, Day 7, M
[15] = male, 1.5 g/kg, 1.5 g/kg/dose BID, Day 1, M
[16] = male, 1.5 g/kg, 1.5 g/kg/dose BID, Day 7, M
[17] = both sexes, CD-1, mouse, plasma, 0.5 g/kg, 0.5 g/kg/dose BID, Day 1, Mean of sexes
[18] = both sexes, CD-1, mouse, plasma, 0.5 g/kg, 0.5 g/kg/dose BID, Day 28, Mean of sexes
[19] = both sexes, CD-1, mouse, plasma, 1 g/kg, 1.0 g/kg/dose BID, Day 1, Mean of sexes

## OC[C@@H](O)[C@@H](O)[C@@H](O)CO [ribitol, (2R,3s,4S)-Pentane-1,2,3,4,5-pentol]
[1]; Day 7 vs Day 1, any dose level
  drug accumulation: no apparent drug accumulation
[1]; after the first dose, Days 1 and 7 (exception females 0.5 g/kg BID Day 1)
  time of maximum plasma concentrations: 6.5 h
[1]; [5]
  Cmax: 141 µg/mL
  Tmax: 0.5 h
  AUC(0-t): 298 µg·h/mL
[1]; [6]
  Cmax: 100 µg/mL
  Tmax: 6.5 h
  AUC(0-t): 218 µg·h/mL
[1]; [7]
  Cmax: 282 µg/mL
  Tmax: 6.5 h
  AUC(0-t): 427 µg·h/mL
[1]; [8]
  Cmax: 210 µg/mL
  Tmax: 6.5 h
  AUC(0-t): 319 µg·h/mL
[1]; [9]
  Cmax: 339 µg/mL
  Tmax: 6.5 h
  AUC(0-t): 504 µg·h/mL
[1]; [10]
  Cmax: 266 µg/mL
  Tmax: 6.5 h
  AUC(0-t): 602 µg·h/mL
[1]; [11]
  Cmax: 121 µg/mL
  Tmax: 6.5 h
  AUC(0-t): 246 µg·h/mL
[1]; [12]
  Cmax: 118 µg/mL
  Tmax: 6.5 h
  AUC(0-t): 170 µg·h/mL
[1]; [13]
  Cmax: 265 µg/mL
  Tmax: 6.5 h
  AUC(0-t): 414 µg·h/mL
[1]; [14]
  Cmax: 237 µg/mL
  Tmax: 6.5 h
  AUC(0-t): 345 µg·h/mL
[1]; [15]
  Cmax: 316 µg/mL
  Tmax: 6.5 h
  AUC(0-t): 595 µg·h/mL
[1]; [16]
  Cmax: 305 µg/mL
  Tmax: 6.5 h
  AUC(0-t): 562 µg·h/mL
[2]
  fraction unbound: 0.554 to 0.614
[3]; CD-1, mouse, plasma, IV 10 mg/kg, female
  AUC(0-inf): 13.3 µg·h/mL
[3]; CD-1, mouse, plasma, IV 10 mg/kg, female, read-out: Vss
  Vd: 4.27 L/kg
[3]; CD-1, mouse, plasma, IV 10 mg/kg, male
  AUC(0-inf): 7.32 µg·h/mL
[3]; CD-1, mouse, plasma, IV 10 mg/kg, male, read-out: Vss
  Vd: 1.49 L/kg
[3]; CD-1, mouse, plasma, IV 30 mg/kg, female
  AUC(0-inf): 20.1 µg·h/mL
[3]; CD-1, mouse, plasma, IV 30 mg/kg, female, read-out: Vss
  Vd: 3 L/kg
[3]; CD-1, mouse, plasma, IV 30 mg/kg, male
  AUC(0-inf): 22.3 µg·h/mL
[3]; CD-1, mouse, plasma, IV 30 mg/kg, male, read-out: Vss
  Vd: 6.74 L/kg
[3]; CD-1, mouse, plasma, IV 100 mg/kg, female
  AUC(0-inf): 43.1 µg·h/mL
[3]; CD-1, mouse, plasma, IV 100 mg/kg, female, read-out: Vss
  Vd: 2.67 L/kg
[3]; CD-1, mouse, plasma, IV 100 mg/kg, male
  AUC(0-inf): 49.7 µg·h/mL
[3]; CD-1, mouse, plasma, IV 100 mg/kg, male, read-out: Vss
  Vd: 2.01 L/kg
[3]; IV 10 mg/kg, female
  CLs: 12.6 mL/min/kg
[3]; IV 10 mg/kg, male
  CLs: 23.4 mL/min/kg
[3]; both sexes, CD-1, plasma, mouse, IV 100 mg/kg, range
  clearance: 33.6 to 38.9 mL/min/kg
[3]; both sexes, CD-1, plasma, mouse, IV 10 and 30 mg/kg, range
  clearance: 12.6 to 25 mL/min/kg
[3]; both sexes, CD-1, plasma, mouse, IV, range, read-out: Volume of distribution at steady state (Vss)
  Vd: 1.49 to 6.74 L/kg
[4]; after 28 days repeated oral administration, any dose level
  drug accumulation: no apparent ribitol drug accumulation
[4]; both sexes, CD-1, mouse, plasma, oral, post first dose and post second dose, Day 1 or Day 28
  Tmax: 0.5 h
[4]; [17]
  Cmax: 141 µg/mL
  AUC(0-t): 337 µg·h/mL
[4]; [18]
  Cmax: 140 µg/mL
  AUC(0-t): 422 µg·h/mL
[4]; [19]
  Cmax: 257 µg/mL
  AUC(0-t): 540 µg·h/mL
